Source: US4943574A, “(1H-azol-1-ylmethyl) substituted benzotriazole derivatives and pharmaceutical compositions containing them” (Janssen Pharmaceutica N.V., priority 1989, dated 1990)
Counter-ions that a name gives are not always drawn. Like-named read-outs stand apart in the source and are kept apart here.

Experiments:
[1] = target: T1, aromatase (Homo sapiens, UniProt P11511); assay: biochemical; conditions: read-out: IC50-values (concentration of the compound required to obtain 50% inhibition of the estrogen synthesis)
T1 sequence (P11511 1-503): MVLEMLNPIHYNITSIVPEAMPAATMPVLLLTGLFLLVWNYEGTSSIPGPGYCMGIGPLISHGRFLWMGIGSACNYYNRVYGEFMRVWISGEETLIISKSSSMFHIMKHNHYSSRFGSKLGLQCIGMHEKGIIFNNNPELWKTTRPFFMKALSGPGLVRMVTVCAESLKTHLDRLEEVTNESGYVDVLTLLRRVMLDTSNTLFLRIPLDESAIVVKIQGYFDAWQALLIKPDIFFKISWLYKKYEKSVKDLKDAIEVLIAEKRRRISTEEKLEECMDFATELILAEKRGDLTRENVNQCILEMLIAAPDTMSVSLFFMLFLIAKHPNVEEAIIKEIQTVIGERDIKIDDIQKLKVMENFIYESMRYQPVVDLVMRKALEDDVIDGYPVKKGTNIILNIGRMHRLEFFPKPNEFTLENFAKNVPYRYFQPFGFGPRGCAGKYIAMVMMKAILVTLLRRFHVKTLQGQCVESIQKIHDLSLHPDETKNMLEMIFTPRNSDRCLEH
Method: Human placental microsomes were diluted in potassium phosphate buffer (0.1M, pH 7.4) to give about 50% conversion of androgens to estrogens (protein content: about 0.5 mg). Four ml human placental microsomes were incubated in a final volume of 5 ml with 0.2 μCi1,2[3H]-androstenedione, 2 μg androstendione and 5 μl of test compound and/or dimethyl sulfoxide (DMSO). […] The reaction was initiated by the addition of androstenedione and proceeded for 30 min at 37° C. During the incubation period, the mixtures were gassed with air. In this assay, aromatization of androstenedione results in the production of [3H]-H2 O which is isolated by extracting the samples with chloroform to remove the free steroid.

[2] = system: aromatase; assay: In vivo-inhibition of the aromatase activity (plasma estradiol in PMSG-injected immature female Wistar rats); design: species or system rat (immature female Wistar rats)
Method: Immature female Wistar rats weighing 120 g were injected subcutaneously with 200 I.U. of pregnant mare's serum gonadotropin (PMSG). […] Control animals received 20% polyethyleneglycol only. Two hours following drug or placebo administration the rats were killed by decapitation and trunk blood was collected on heparine. Plasma estradiol concentrations were measured by standard radio-immunological procedures.

[3] = human placental microsomes, 30 min at 37° C., pH 7.4, 1,2[3H]androstenedione
[4] = 1 mg/kg oral gavage, two hours following administration, PMSG-injected immature female Wistar rats

With `CCCCCCCCCOn1nnc2ccc(Cn3ccnc3)cc21` [Compound 203] the IC50 [1, 3] was 17 nM.
For `Cn1nnc2ccc(C(c3ccc(C(F)(F)F)cc3)n3ccnc3)cc21` (centres unmarked) [Compound 55], the IC50 [1, 3] was 18.8 nM and the “% recovery estradiol (plasma estradiol relative to the controls)” value [2, 4] was 3%.
With `CCOn1nnc2ccc(Cn3ccnc3)cc21.Cl` [Compound 225, 1-ethoxy-6-(1H-imidazol-1-ylmethyl)-1H-benzotriazole monohydrochloride] the IC50 [1, 3] was 10 nM and the “% recovery estradiol (plasma estradiol relative to the controls)” value [2, 4] was 19%.
`c1ccc(SCOn2nnc3ccc(Cn4ccnc4)cc32)cc1` [Compound 176] gave an IC50 [1, 3] of 12 nM.
With `CC(C)n1nnc2ccc(C(c3ccc(Cl)cc3)n3ccnc3)cc21` (centres unmarked) [Compound 116] the IC50 [1, 3] was 24.9 nM and the “% recovery estradiol (plasma estradiol relative to the controls)” value [2, 4] was 20%.
In the case of `COc1ccc(C(c2ccc3nnn(C)c3c2)n2ccnc2)cc1` (centres unmarked) [Compound 59], the IC50 [1, 3] is reported as 18 nM.
Work on `c1ccc(-c2ccc(COn3nnc4ccc(Cn5ccnc5)cc43)cc2)cc1` [Compound 191] yielded an IC50 [1, 3] of 23.4 nM.
In the case of `Cn1nnc2ccc(C(c3cccc(Br)c3)n3ccnc3)cc21` (centres unmarked) [Compound 50], the IC50 [1, 3] is reported as 18.3 nM and the “% recovery estradiol (plasma estradiol relative to the controls)” value [2, 4] is reported as 1%.
In the case of `CCCCn1nnc2ccc(C(c3ccc(F)cc3)n3ccnc3)cc21` (centres unmarked) [Compound 17], the IC50 [1, 3] is reported as 18.2 nM and the “% recovery estradiol (plasma estradiol relative to the controls)” value [2, 4] is reported as 7%.
In the case of `CCCCn1nnc2ccc(C(c3ccccc3)n3ccnc3)cc21.O=C(O)C(=O)O` (centres unmarked) [Compound 75, 1-butyl-6-[(1H-imidazol-1-yl)phenylmethyl]-1H-benzotriazole ethanedioate(1:1)], the IC50 [1, 3] is reported as 24.2 nM and the “% recovery estradiol (plasma estradiol relative to the controls)” value [2, 4] is reported as 27%.
In the case of `CCCOn1nnc2ccc(Cn3ccnc3)cc21` [Compound 227, 6-(1H-imidazol-1-ylmethyl)-1-propoxy-1H-benzotriazole monohydrochloride. hemihydrate], the IC50 [1, 3] is reported as 7.4 nM and the “% recovery estradiol (plasma estradiol relative to the controls)” value [2, 4] is reported as 19%.
`c1ccc(COn2nnc3ccc(Cn4ccnc4)cc32)cc1` [Compound 228, 6-(1H-imidazol-1-ylmethyl)-1-(phenylmethoxy)-1H-benzotriazole] gave an IC50 [1, 3] of 5.2 nM.
In the case of `Cn1nnc2ccc(C(c3ccc(Br)cc3)n3ccnc3)cc21` (centres unmarked) [Compound 51], the IC50 [1, 3] is reported as 22.2 nM and the “% recovery estradiol (plasma estradiol relative to the controls)” value [2, 4] is reported as 7%.
In the case of `Fc1ccc(C(c2ccc3[nH]nnc3c2)n2ccnc2)cc1` (centres unmarked) [Compound 113], the IC50 [1, 3] is reported as 18.8 nM and the “% recovery estradiol (plasma estradiol relative to the controls)” value [2, 4] is reported as 4%.
`CCCCn1nnc2ccc(Cn3ccnc3)cc21` [Compound 147, 1-butyl-6-(1H-imidazol-1-ylmethyl)-1H-benzotriazole] was tested, and the IC50 [1, 3] was 7.6 nM and the “% recovery estradiol (plasma estradiol relative to the controls)” value [2, 4] was 21%.
With `Cn1nnc2ccc(C(c3ccccc3)n3ccnc3)cc21` (centres unmarked) [Compound 90] the IC50 [1, 3] was 22.7 nM and the “% recovery estradiol (plasma estradiol relative to the controls)” value [2, 4] was 5%.
With `Clc1ccc(C(c2ccc3nnn(C4CCCCC4)c3c2)n2ccnc2)cc1` (centres unmarked) [Compound 117] the IC50 [1, 3] was 12.5 nM and the “% recovery estradiol (plasma estradiol relative to the controls)” value [2, 4] was 9%.
`CCCC(c1ccc2nnn(C)c2c1)n1ccnc1` (centres unmarked) [Compound 31] was tested, and the IC50 [1, 3] was 34.2 nM and the “% recovery estradiol (plasma estradiol relative to the controls)” value [2, 4] was 8%.
With `CCCCCCCOn1nnc2ccc(Cn3ccnc3)cc21` [Compound 206] the IC50 [1, 3] was 8 nM.
For `CCC(C)n1nnc2ccc(Cn3ccnc3)cc21` (centres unmarked) [Compound 101], the IC50 [1, 3] was 17.4 nM and the “% recovery estradiol (plasma estradiol relative to the controls)” value [2, 4] was 7%.
With `c1ccc2c(c1)CCCC2n1nnc2ccc(Cn3ccnc3)cc21` (centres unmarked) [Compound 105] the IC50 [1, 3] was 19.8 nM and the “% recovery estradiol (plasma estradiol relative to the controls)” value [2, 4] was 14%.
In the case of `BrCCOn1nnc2ccc(Cn3ccnc3)cc21` [Compound 204], the IC50 [1, 3] is reported as 9.2 nM and the “% recovery estradiol (plasma estradiol relative to the controls)” value [2, 4] is reported as 19%.
In the case of `Cn1nnc2ccc(C(c3ccc(Cl)cc3)n3ccnc3)cc21` (centres unmarked) [Compound 30], the IC50 [1, 3] is reported as 22.2 nM and the “% recovery estradiol (plasma estradiol relative to the controls)” value [2, 4] is reported as 7%.
Work on `c1ccc(CCOn2nnc3ccc(Cn4ccnc4)cc32)cc1` [Compound 208] yielded an IC50 [1, 3] of 11 nM.
In the case of `Cn1nnc2ccc(C(c3ccccc3)n3ccnc3)cc21` (centres unmarked) [Compound 7], the IC50 [1, 3] is reported as 25.7 nM and the “% recovery estradiol (plasma estradiol relative to the controls)” value [2, 4] is reported as 7%.
For `Fc1cccc(Cn2nnc3ccc(Cn4ccnc4)cc32)c1` [Compound 99], the IC50 [1, 3] was 17.8 nM and the “% recovery estradiol (plasma estradiol relative to the controls)” value [2, 4] was 11%.
Compound `CCOn1nnc2ccc(C(c3ccccc3)n3ccnc3)cc21` (centres unmarked) [Compound 4] has an IC50 [1, 3] of 16 nM.
For `CCCCCCOn1nnc2ccc(Cn3ccnc3)cc21` [Compound 202], the IC50 [1, 3] was 7.1 nM and the “% recovery estradiol (plasma estradiol relative to the controls)” value [2, 4] was 21%.
For `CCCCn1nnc2ccc(C(c3ccc(Cl)cc3)n3ccnc3)cc21` (centres unmarked) [Compound 15], the IC50 [1, 3] was 22.6 nM and the “% recovery estradiol (plasma estradiol relative to the controls)” value [2, 4] was 2%.
In the case of `CC(C)n1nnc2ccc(Cn3ccnc3)cc21` [Compound 87], the IC50 [1, 3] is reported as 26.9 nM and the “% recovery estradiol (plasma estradiol relative to the controls)” value [2, 4] is reported as 5%.
In the case of `OCCCn1nnc2ccc(Cn3ccnc3)cc21` [Compound 109], the IC50 [1, 3] is reported as 26.2 nM.
For `CC(C)On1nnc2ccc(C(c3ccccc3)n3ccnc3)cc21` (centres unmarked) [Compound 2], the IC50 [1, 3] was 16 nM and the “% recovery estradiol (plasma estradiol relative to the controls)” value [2, 4] was 20%.
`c1ccc2c(c1)CCC2n1nnc2ccc(Cn3ccnc3)cc21` (centres unmarked) [Compound 115] was tested, and the IC50 [1, 3] was 14.4 nM and the “% recovery estradiol (plasma estradiol relative to the controls)” value [2, 4] was 22%.
In the case of `Clc1ccc(Cn2nnc3ccc(Cn4ccnc4)cc32)cc1` [Compound 91], the IC50 [1, 3] is reported as 8.8 nM.
With `Clc1ccc(C(c2ccc3nnn(-c4ccccc4)c3c2)n2ccnc2)cc1.O=[N+]([O-])O` (centres unmarked) the “% recovery estradiol (plasma estradiol relative to the controls)” value ([2]; rat, in vivo) was 21%.
With `c1ccc(C(c2ccc3nnn(C4CCCCC4)c3c2)n2ccnc2)cc1` (centres unmarked) [Compound 104] the IC50 [1, 3] was 20.6 nM and the “% recovery estradiol (plasma estradiol relative to the controls)” value [2, 4] was 9%.
In the case of `Cn1nnc2ccc(C(c3ccccc3Cl)n3ccnc3)cc21` (centres unmarked) [Compound 56], the IC50 [1, 3] is reported as 21.5 nM and the “% recovery estradiol (plasma estradiol relative to the controls)” value [2, 4] is reported as 8%.
With `Cn1nnc2ccc(C(c3ccc(Cl)cc3)n3ccnc3)cc21` (centres unmarked) [Compound 48] the IC50 [1, 3] was 16.6 nM and the “% recovery estradiol (plasma estradiol relative to the controls)” value [2, 4] was 6%.
For `c1cn(Cc2ccc3nnn(CC4CCCCC4)c3c2)cn1` [Compound 97], the IC50 [1, 3] was 13.1 nM and the “% recovery estradiol (plasma estradiol relative to the controls)” value [2, 4] was 10%.
In the case of `Cc1cncn1C(c1ccccc1)c1ccc2nnn(OCc3ccccc3)c2c1` (centres unmarked) [Compound 213], the IC50 [1, 3] is reported as 36.2 nM.
For `CC(C)n1nnc2ccc(C(c3ccccc3)n3ccnc3)cc21.O=C(O)C(=O)O` (centres unmarked) [Compound 76, 6-[(1H-imidazol-1-yl)phenylmethyl]-1-(1-methylethyl)-1H-benzotriazole ethanedioate(1:1)], the IC50 [1, 3] was 34.7 nM and the “% recovery estradiol (plasma estradiol relative to the controls)” value [2, 4] was 9%.
`c1cncc(COn2nnc3ccc(Cn4ccnc4)cc32)c1` [Compound 196] gave an IC50 [1, 3] of 11 nM.
With `CCCCOn1nnc2ccc(C(c3ccccc3)n3ccnc3)cc21` (centres unmarked) [Compound 6] the IC50 [1, 3] was 12 nM.
In the case of `Cn1nnc2ccc(C(c3cccc(F)c3)n3ccnc3)cc21` (centres unmarked) [Compound 33], the IC50 [1, 3] is reported as 24.6 nM and the “% recovery estradiol (plasma estradiol relative to the controls)” value [2, 4] is reported as 5%.
`CC(C)CCn1nnc2ccc(C(c3ccc(Cl)cc3)n3ccnc3)cc21` (centres unmarked) [Compound 120] showed an IC50 [1, 3] of 8.9 nM.
Compound `CCOC(=O)COn1nnc2ccc(Cn3ccnc3)cc21` [Compound 198] has an IC50 [1, 3] of 18 nM.
Work on `CCC(C)On1nnc2ccc(Cn3ccnc3)cc21` (centres unmarked) [Compound 197] yielded an IC50 [1, 3] of 11 nM.
For `C#CCOn1nnc2ccc(Cn3ccnc3)cc21` [Compound 179], the IC50 [1, 3] was 23.2 nM.
With `c1csc(Cn2nnc3ccc(Cn4ccnc4)cc32)c1` [Compound 111] the IC50 [1, 3] was 14.3 nM and the “% recovery estradiol (plasma estradiol relative to the controls)” value [2, 4] was 19%.
With `CCCCOn1nnc2ccc(Cn3ccnc3)cc21.Cl` [Compound 226, 1-butoxy-6-(1H-imidazol-1-ylmethyl)-1H-benzotriazole monohydrochloride] the IC50 [1, 3] was 6.7 nM and the “% recovery estradiol (plasma estradiol relative to the controls)” value [2, 4] was 19%.
For `CCCCCOn1nnc2ccc(Cn3ccnc3)cc21` [Compound 201], the IC50 [1, 3] was 6.7 nM and the “% recovery estradiol (plasma estradiol relative to the controls)” value [2, 4] was 19%.
With `CCCn1nnc2ccc(Cn3ccnc3)cc21` [Compound 89] the IC50 [1, 3] was 15 nM and the “% recovery estradiol (plasma estradiol relative to the controls)” value [2, 4] was 5%.
With `CC(C)CCn1nnc2ccc(Cn3ccnc3)cc21` [Compound 93] the IC50 [1, 3] was 10.5 nM and the “% recovery estradiol (plasma estradiol relative to the controls)” value [2, 4] was 8%.
`c1ccc(COn2nnc3ccc(C(c4ccccc4)n4ccnc4)cc32)cc1` (centres unmarked) [Compound 188] was tested, and the IC50 [1, 3] was 18.2 nM.
`COCCOn1nnc2ccc(Cn3ccnc3)cc21` [Compound 220, 6-(1H-imidazol-1-ylmethyl)-1-(2-methoxyethoxy)-1H-benzotriazole] gave an IC50 [1, 3] of 20 nM.
For `Clc1ccc(C(c2ccc3nnn(-c4ccccc4)c3c2)n2ccnc2)cc1.O=[N+]([O-])O` (centres unmarked) [mononitrate], the IC50 [1] was 17.6 nM.
`CCCCn1nnc2ccc(C(c3cccc(Cl)c3)n3ccnc3)cc21` (centres unmarked) [Compound 23] gave an IC50 [1, 3] of 7.5 nM.
